Counter-ions that a name gives are not always drawn.
Key:
[1] = test system: 5-HT₃ receptor; experiment: Suppression of 5-HT-induced reflex bradycardia in urethane-anesthetized rats (5-HT₃ receptor antagonism in vivo); set-up: species or system Male Wistar rats; settings: 5-HT i.v. 2 mins after
Protocol: Male Wistar rats were urethane-anesthetized and fixed. Cannulas were inserted to carotid artery and thigh vein as used for the recording of blood pressure end heart beat, and for the administration of compounds, respectively.
Several amounts of compound of the present invention were administered to the vein or duodenum. 5-HT was administered rapidly to the vein, 2 mins after. The suppression effect of the compounds was confirmed by the measurement of reflex bradycardia generated. (Nature 316, 11 (1985).)

[2] = Acute toxicity (LD₅₀) in mice; settings: mouse, in vivo
Protocol: It was confirmed that the toxicity of the compounds of the present invention were very low. Therefore, the compounds of the present invention may be considered to be sufficiently safe and suitable for pharmaceutical use.
For example, the values of acute toxicity (LD₅₀) of 2-(5-methylimidazol-4-ylmethyl)-5-methyl-1,2-dihydro-γ--carbolin-1-one hydrochloride was 290 mg/kg animal body weight by oral administration and 48 mg/kg animal body weight by intravenous administration in mice, respectively.

## Cc1[nH]cnc1Cn1ccc2c(c1=O)c1ccccc1n2C [2-(5-methylimidazol-4-ylmethyl)-5-methyl-1,2-dihydro-γ-carbolin-1-one hydrochloride]
[1]; compound administered to the duodenum
  ID₅₀ i.d.: 7.7 mg/kg
[1]; compound administered to the vein
  ID₅₀ i.v.: 0.3 mg/kg
[2]; intravenous administration
  LD50: 48 mg/kg
[2]; oral administration
  LD50: 290 mg/kg

Reference: patent EP0392663A1, “Carboline derivative as a 5-HT3 receptor antagonist” (ONO PHARMACEUTICAL CO., LTD., priority 1989, dated 1990)
